Results reported in patent US11759462B2, “Spirocyclic compounds as tryptophan hydroxylase inhibitors” (priority 2013, dated 2023).

Each molecule was assayed against T1, Recombinant human TPH1 (MBP tagged) (Homo sapiens, UniProt P17752) (assay: TPH1 in vitro inhibition assay (kinetic fluorescence)). Details: read-out: TPH1 Range (TPH1 inhibition IC50).
T1 construct: cloning full length human TPH1 cDNA in to a bacterial pMAL-c5E expression vector; made in house; host or cells: E. coli BL21 (DE3)
T1 sequence (P17752 1-444): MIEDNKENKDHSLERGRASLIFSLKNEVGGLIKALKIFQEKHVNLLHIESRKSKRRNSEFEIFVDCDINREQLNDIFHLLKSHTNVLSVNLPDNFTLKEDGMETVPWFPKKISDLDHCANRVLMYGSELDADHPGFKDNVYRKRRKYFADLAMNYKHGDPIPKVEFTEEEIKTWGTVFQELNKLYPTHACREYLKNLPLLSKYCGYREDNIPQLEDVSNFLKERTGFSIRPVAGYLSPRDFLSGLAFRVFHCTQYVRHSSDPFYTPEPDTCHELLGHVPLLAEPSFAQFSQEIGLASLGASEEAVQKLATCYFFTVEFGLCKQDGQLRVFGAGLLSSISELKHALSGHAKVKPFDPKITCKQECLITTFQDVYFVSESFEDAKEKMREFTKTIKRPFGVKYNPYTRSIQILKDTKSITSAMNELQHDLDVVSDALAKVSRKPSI
Type: biochemical
Outline: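 Final mix: 15 nM MBP-TPH1, 30 μM Trp, 36 μM 6-methyltetrahydropterin, 25 μM ferrous ammonium sulfate, 50 mM MES pH 7.1, 1% DMSO, room temperature.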
In the case of `Cc1ccn(-c2cc(-c3ccc(OC(C)C)c(Cl)c3)ccc2[C@@H](Oc2cc(N3CCC4(CC3)CN[C@H](C(=O)O)C4)nc(N)n2)C(F)(F)F)n1` [Example 1bv, (S)-8-(2-amino-6-((R)-1-(3′-chloro-4′-isopropoxy-3-(3-methyl-1H-pyrazol-1-yl)-[1,1′-biphenyl]-4-yl)-2,2,2-trifluoroethoxy)pyrimidin-4-yl)-2,8-diazaspiro[4.5]decane-3-carboxylic acid], the IC50 is reported as < 50 nM.
`Cc1ccn(-c2cc(-c3ccc4ccccc4c3)ccc2[C@@H](Oc2cc(N3CCC4(CC3)CN[C@H](C(=O)O)C4)nc(N)n2)C(F)(F)F)n1` [Example 1bw, (S)-8-(2-amino-6-((R)-2,2,2-trifluoro-1-(2-(3-methyl-1H-pyrazol-1-yl)-4-(naphthalen-2-yl)phenyl)ethoxy)pyrimidin-4-yl)-2,8-diazaspiro[4.5]decane-3-carboxylic acid] was tested, and the IC50 was 50 to 300 nM.
In the case of `Cc1ccn(-c2cc(-c3ccc(OCc4ccccc4)c(F)c3)ccc2[C@@H](Oc2cc(N3CCC4(CC3)CN[C@H](C(=O)O)C4)nc(N)n2)C(F)(F)F)n1` [Example 1bx, (S)-8-(2-amino-6-((R)-1-(4′-(benzyloxy)-3′-fluoro-3-(3-methyl-1H-pyrazol-1-yl)-[1,1′-biphenyl]-4-yl)-2,2,2-trifluoroethoxy)pyrimidin-4-yl)-2,8-diazaspiro[4.5]decane-3-carboxylic acid], the IC50 is reported as < 50 nM.
For `Cc1ccn(-c2cc(-c3ccc(OC(C)C)c(C)c3)ccc2[C@@H](Oc2cc(N3CCC4(CC3)CN[C@H](C(=O)O)C4)nc(N)n2)C(F)(F)F)n1` [Example 1by, (S)-8-(2-amino-6-((R)-2,2,2-trifluoro-1-(4′-isopropoxy-3′-methyl-3-(3-methyl-1H-pyrazol-1-yl)-[1,1′-biphenyl]-4-yl)ethoxy)pyrimidin-4-yl)-2,8-diazaspiro[4.5]decane-3-carboxylic acid], the IC50 was < 50 nM.
With `CCCOc1ccc(-c2ccc([C@@H](Oc3cc(N4CCC5(CC4)CN[C@H](C(=O)O)C5)nc(N)n3)C(F)(F)F)c(-n3ccc(C)n3)c2)cc1F` [Example 1bz, (S)-8-(2-amino-6-((R)-2,2,2-trifluoro-1-(3′-fluoro-3-(3-methyl-1H-pyrazol-1-yl)-4′-propoxy-[1,1′-biphenyl]-4-yl)ethoxy)pyrimidin-4-yl)-2,8-diazaspiro[4.5]decane-3-carboxylic acid] the IC50 was < 50 nM.
`CCCCOc1ccc(-c2ccc([C@@H](Oc3cc(N4CCC5(CC4)CN[C@H](C(=O)O)C5)nc(N)n3)C(F)(F)F)c(-n3ccc(C)n3)c2)cc1F` [Example 1ca, (S)-8-(2-amino-6-((R)-1-(4′-butoxy-3′-fluoro-3-(3-methyl-1H-pyrazol-1-yl)-[1,1′-biphenyl]-4-yl)-2,2,2-trifluoroethoxy)pyrimidin-4-yl)-2,8-diazaspiro[4.5]decane-3-carboxylic acid] was tested, and the IC50 was < 50 nM.
`Cc1ccn(-c2cc(-c3ccc(-c4nnc(C)o4)c(F)c3)ccc2[C@@H](Oc2cc(N3CCC4(CC3)CN[C@H](C(=O)O)C4)nc(N)n2)C(F)(F)F)n1` [Example 1cb, (S)-8-(2-amino-6-((R)-2,2,2-trifluoro-1-(3′-fluoro-4′-(5-methyl-1,3,4-oxadiazol-2-yl)-3-(3-methyl-1H-pyrazol-1-yl)-[1,1′-biphenyl]-4-yl)ethoxy)pyrimidin-4-yl)-2,8-diazaspiro[4.5]decane-3-carboxylic acid] was tested, and the IC50 was < 50 nM.
`Cc1ccn(-c2cc(-c3ccc(S(C)(=O)=O)cc3)ccc2[C@@H](Oc2cc(N3CCC4(CC3)CN[C@H](C(=O)O)C4)nc(N)n2)C(F)(F)F)n1` [Example 1cc, (S)-8-(2-amino-6-((R)-2,2,2-trifluoro-1-(3-(3-methyl-1H-pyrazol-1-yl)-4′-(methylsulfonyl)-[1,1′-biphenyl]-4-yl)ethoxy)pyrimidin-4-yl)-2,8-diazaspiro[4.5]decane-3-carboxylic acid] was tested, and the IC50 was < 50 nM.
`CCCOc1ccc(-c2ccc([C@@H](Oc3cc(N4CCC5(CC4)CN[C@H](C(=O)O)C5)nc(N)n3)C(F)(F)F)c(-n3ccc(C)n3)c2)cc1` [Example 1cd, (S)-8-(2-amino-6-((R)-2,2,2-trifluoro-1-(3-(3-methyl-1H-pyrazol-1-yl)-4′-propoxy-[1,1′-biphenyl]-4-yl)ethoxy)pyrimidin-4-yl)-2,8-diazaspiro[4.5]decane-3-carboxylic acid] was tested, and the IC50 was < 50 nM.
In the case of `Cc1ccn(-c2cc(-c3ccc(C(=O)NCCN4CCOCC4)cc3)ccc2[C@@H](Oc2cc(N3CCC4(CC3)CN[C@H](C(=O)O)C4)nc(N)n2)C(F)(F)F)n1` [Example 1ce, (S)-8-(2-amino-6-((R)-2,2,2-trifluoro-1-(3-(3-methyl-1H-pyrazol-1-yl)-4′-((2-morpholinoethyl)carbamoyl)-[1,1′-biphenyl]-4-yl)ethoxy)pyrimidin-4-yl)-2,8-diazaspiro[4.5]decane-3-carboxylic acid], the IC50 is reported as < 50 nM.
With `Cc1ccn(-c2cc(-c3ccc(S(N)(=O)=O)cc3)ccc2[C@@H](Oc2cc(N3CCC4(CC3)CN[C@H](C(=O)O)C4)nc(N)n2)C(F)(F)F)n1` [Example 1cf, (S)-8-(2-amino-6-((R)-2,2,2-trifluoro-1-(3-(3-methyl-1H-pyrazol-1-yl)-4′-sulfamoyl-[1,1′-biphenyl]-4-yl)ethoxy)pyrimidin-4-yl)-2,8-diazaspiro[4.5]decane-3-carboxylic acid] the IC50 was 50 to 300 nM.
With `Cc1ccn(-c2cc(-c3ccc(C(N)=O)cc3)ccc2[C@@H](Oc2cc(N3CCC4(CC3)CN[C@H](C(=O)O)C4)nc(N)n2)C(F)(F)F)n1` [Example 1cg, (S)-8-(2-amino-6-((R)-1-(4′-carbamoyl-3-(3-methyl-1H-pyrazol-1-yl)-[1,1′-biphenyl]-4-yl)-2,2,2-trifluoroethoxy)pyrimidin-4-yl)-2,8-diazaspiro[4.5]decane-3-carboxylic acid] the IC50 was < 50 nM.
In the case of `CNC(=O)c1ccc(-c2ccc([C@@H](Oc3cc(N4CCC5(CC4)CN[C@H](C(=O)O)C5)nc(N)n3)C(F)(F)F)c(-n3ccc(C)n3)c2)cc1` [Example 1ch, (S)-8-(2-amino-6-((R)-2,2,2-trifluoro-1-(3-(3-methyl-1H-pyrazol-1-yl)-4′-(methylcarbamoyl)-[1,1′-biphenyl]-4-yl)ethoxy)pyrimidin-4-yl)-2,8-diazaspiro[4.5]decane-3-carboxylic acid], the IC50 is reported as 50 to 300 nM.
For `COc1ccc(-c2ccc([C@@H](Oc3cc(N4CCC5(CC4)CN[C@H](C(=O)O)C5)nc(N)n3)C(F)(F)F)c(-n3ccc(C)n3)c2)cc1F` [Example 1ci, (S)-8-(2-amino-6-((R)-2,2,2-trifluoro-1-(3′-fluoro-4′-methoxy-3-(3-methyl-1H-pyrazol-1-yl)-[1,1′-biphenyl]-4-yl)ethoxy)pyrimidin-4-yl)-2,8-diazaspiro[4.5]decane-3-carboxylic acid], the IC50 was < 50 nM.
`Cc1ccn(-c2cc(-c3ccc(C(=O)N4CCNCC4)cc3)ccc2[C@@H](Oc2cc(N3CCC4(CC3)CN[C@H](C(=O)O)C4)nc(N)n2)C(F)(F)F)n1` [Example 1cj, (S)-8-(2-amino-6-((R)-2,2,2-trifluoro-1-(3-(3-methyl-1H-pyrazol-1-yl)-4′-(piperazine-1-carbonyl)-[1,1′-biphenyl]-4-yl)ethoxy)pyrimidin-4-yl)-2,8-diazaspiro[4.5]decane-3-carboxylic acid] was tested, and the IC50 was < 50 nM.
